Measurements from PubChem BioAssay (NCI).
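Dose response: 5 concentrations. Exposure: 48 h. Format: 96-well plates. Endpoint: linear interpolation; highest concentration if not reached. GI50 = concentration required for 50% inhibition of growth. TGI is the concentration that stops growth completely.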

Legend:
Test in all cases: growth of human tumour cells (NCI), 48 h
[1] = system: HCT-15 colon
[2] = system: HL-60(TB) leukemia
[3] = system: NCI-H522 lung
[4] = system: RPMI-8226 leukemia
[5] = system: MOLT-4 leukemia
[6] = system: SNB-75 CNS
[7] = system: OVCAR-4 ovarian
[8] = system: SW-620 colon
[9] = system: A498 renal
[10] = system: EKVX NSCLC

Structure (SMILES) | GI50 [1] | TGI [1] | GI50 [2] | TGI [2] | GI50 [3] | TGI [3] | GI50 [4] | TGI [4] | GI50 [5] | TGI [5] | GI50 [6] | TGI [6] | GI50 [7] | TGI [7] | GI50 [8] | TGI [8] | TGI [9] | TGI [10] | GI50 [9]
Nc1ccccc1C#CC#Cc1ccccc1N | 11.4 µM | 25.5 µM | 3.97 µM | > 100 µM | 11.5 µM | 38.6 µM | 8.08 µM | > 100 µM | 16.3 µM | > 100 µM | 32.3 µM | > 100 µM | 23.7 µM | > 100 µM | 15.7 µM | 35.3 µM |  |  | 
CCOC(=N)CC(=O)Nc1ccc(Cl)cc1 |  | > 100 µM |  | > 100 µM |  | > 100 µM |  |  |  | > 100 µM |  | > 100 µM |  | > 100 µM |  | > 100 µM | > 100 µM | > 100 µM | 
CNc1ccccc1C(=O)N/N=C/C=C/c1ccccc1 | 0.457 µM | > 74.1 µM | 0.566 µM | 18.5 µM | 0.565 µM | 11.3 µM | 2.68 µM | > 100 µM | 1.86 µM | > 100 µM | 0.673 µM |  | 5.61 µM | > 48.5 µM | 0.454 µM | > 100 µM | 5.81 µM |  | 0.39 µM
COc1ccc(OCC(=O)O)c2c1CCC(C(C)C)C2=O (stereo unspecified) |  |  |  | > 100 µM |  | > 100 µM |  | > 100 µM |  | > 100 µM |  |  |  | > 100 µM |  | > 100 µM | > 100 µM | > 100 µM | 
COC(=O)c1c[nH]cc1CCc1c[nH]cc1C(=O)OC |  | > 100 µM |  | > 100 µM |  | > 100 µM |  |  |  | > 100 µM |  |  |  | > 100 µM |  | > 100 µM | > 100 µM | > 100 µM | 
O=C(Nc1ccc(-c2nc3cc4ccccc4cc3[nH]2)cc1)c1cccc(Br)c1 | 4.12 µM | 42.1 µM | 16.6 µM | 48.4 µM | 12.1 µM | 31.8 µM | 10.6 µM | 56.8 µM | 27.6 µM | > 100 µM | 12.4 µM | 26.4 µM | 2.88 µM | 7.97 µM | 3.09 µM | 12.8 µM | > 100 µM |  | 47.1 µM
CC(=O)N(C)OC(=O)CC(=O)c1ccccc1 |  |  |  | > 100 µM |  | > 100 µM |  | > 100 µM |  | > 100 µM |  | > 100 µM |  | > 100 µM |  | > 100 µM |  |  | 
CC(C)C(C(=O)O)N(CC1(O)OCC(O)C(O)C1O)N=O (stereo unspecified) |  |  |  | > 100 µM |  | > 100 µM |  | > 100 µM |  | > 100 µM |  | > 100 µM |  |  |  | > 100 µM | > 100 µM | > 100 µM | 
CCNc1nnc(CSc2nc(-c3ccccc3)c(-c3ccccc3)[nH]2)s1 |  | 43.8 µM |  | 37 µM |  | 39.7 µM |  | 54.9 µM |  | 56.7 µM |  | 82.6 µM |  | > 100 µM |  | 44.1 µM |  | 44.4 µM | 
C/C(=N\NC(=S)N1CCCCCC1)c1nccnc1C |  | > 100 µM |  | 2.95 µM |  |  |  | > 100 µM |  |  |  | 21.9 µM |  | > 100 µM |  | > 100 µM | 12.9 µM |  | 
C/C(=N\N=C(N)N)C(CN(CC(C)C)CC(C)C)C(=O)Nc1ccc(C)cc1C (stereo unspecified) |  | > 100 µM |  | > 100 µM |  | > 100 µM |  |  |  | > 100 µM |  | > 100 µM |  | > 100 µM |  | > 100 µM | > 100 µM | > 100 µM | 
